pIC50: −log10 of the molar value. Where a name gives a salt, the structure may show the parent alone.
Tests used:
[1] = target: T1, GST-tagged truncated LRRK2 (Homo sapiens, UniProt Q5S007); test: LRRK2 Assay, Format 1 (Lantha Screen), WT; assay type: biochemical
T1 construct: GST-tagged truncated LRRK2 from Invitrogen (Cat # PV4874); GST; purchased Invitrogen PV4874
Description: LRRK2 kinase activity was measured using Lantha Screen technology from Invitrogen. GST-tagged truncated LRRK2 from Invitrogen (Cat # PV4874) was incubated with a fluorescein-labeled peptide substrate based upon ezrin/radixin/moesin (ERM), also known as LRRKtide (Invitrogen cat # PR8976A), in the presence of a dose response of compound. Upon completion, the assay was stopped and detected with a terbium labeled anti-phospho-ERM antibody (Invitrogen, cat # PR8975A). […] Aliquots (3.5 μL) of the 100% DMSO dose response were mixed with 46.5 μL water then 1 μL of this mixture was added to the 3 μL substrate mix in the 384-well plate. The kinase reaction was started with 3 μL of a working solution of LRRK2 enzyme at a concentration of 4 μg/mL. […] The reaction was allowed to progress at room temperature for two hours and then stopped with the addition of 7 μL of detection buffer (20 mM Tris pH 7.6, 0.01% NP-40, 0.02% NaN3, 6 mM EDTA with 2 nM terbium labeled anti-phospho-ERM).

[2] = target: T2, mutant G2019S LRRK2 (Homo sapiens, UniProt Q5S007, G2019S); test: LRRK2 Assay, Format 1 (Lantha Screen), G2019S mutant
T2 sequence (Q5S007 970-2527 G2019S limits assumed): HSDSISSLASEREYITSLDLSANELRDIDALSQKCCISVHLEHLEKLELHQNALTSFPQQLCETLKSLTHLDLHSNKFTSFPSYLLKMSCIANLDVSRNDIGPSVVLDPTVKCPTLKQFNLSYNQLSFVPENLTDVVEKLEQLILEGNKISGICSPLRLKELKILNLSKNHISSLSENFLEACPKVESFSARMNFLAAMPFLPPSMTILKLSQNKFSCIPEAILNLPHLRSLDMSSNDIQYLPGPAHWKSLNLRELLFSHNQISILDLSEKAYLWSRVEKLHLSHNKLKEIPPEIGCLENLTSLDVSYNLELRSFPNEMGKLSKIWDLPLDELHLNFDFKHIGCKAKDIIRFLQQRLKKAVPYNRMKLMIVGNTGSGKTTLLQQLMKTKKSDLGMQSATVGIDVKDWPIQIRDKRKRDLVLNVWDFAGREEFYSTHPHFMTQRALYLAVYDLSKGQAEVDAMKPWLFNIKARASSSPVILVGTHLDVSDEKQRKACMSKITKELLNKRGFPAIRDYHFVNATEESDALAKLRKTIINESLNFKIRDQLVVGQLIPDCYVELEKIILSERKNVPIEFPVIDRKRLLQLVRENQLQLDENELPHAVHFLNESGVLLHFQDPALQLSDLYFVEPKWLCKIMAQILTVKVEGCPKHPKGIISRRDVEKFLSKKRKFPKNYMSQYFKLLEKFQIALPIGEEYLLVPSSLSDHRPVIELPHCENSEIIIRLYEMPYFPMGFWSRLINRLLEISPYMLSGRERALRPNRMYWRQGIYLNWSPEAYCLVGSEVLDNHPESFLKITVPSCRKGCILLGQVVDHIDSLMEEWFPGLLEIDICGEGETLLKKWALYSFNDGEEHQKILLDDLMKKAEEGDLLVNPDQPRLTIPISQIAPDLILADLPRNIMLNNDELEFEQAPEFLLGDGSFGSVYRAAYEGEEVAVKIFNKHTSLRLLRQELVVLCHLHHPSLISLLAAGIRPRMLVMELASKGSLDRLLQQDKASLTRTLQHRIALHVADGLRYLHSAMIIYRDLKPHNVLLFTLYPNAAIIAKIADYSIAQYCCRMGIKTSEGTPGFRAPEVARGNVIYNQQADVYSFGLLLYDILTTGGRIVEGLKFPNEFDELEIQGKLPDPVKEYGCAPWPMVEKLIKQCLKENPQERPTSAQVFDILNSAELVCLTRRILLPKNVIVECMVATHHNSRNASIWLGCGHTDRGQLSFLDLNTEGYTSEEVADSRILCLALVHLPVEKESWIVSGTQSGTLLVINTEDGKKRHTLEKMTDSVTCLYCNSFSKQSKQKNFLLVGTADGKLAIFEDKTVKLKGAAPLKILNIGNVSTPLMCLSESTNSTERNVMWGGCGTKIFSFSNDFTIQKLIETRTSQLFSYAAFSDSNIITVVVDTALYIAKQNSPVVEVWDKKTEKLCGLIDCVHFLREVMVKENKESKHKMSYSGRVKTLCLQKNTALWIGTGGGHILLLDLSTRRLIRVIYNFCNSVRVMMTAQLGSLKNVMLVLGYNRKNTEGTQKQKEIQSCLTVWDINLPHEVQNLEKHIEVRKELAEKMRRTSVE

[3] = target: T1, GST-tagged truncated LRRK2; test: LRRK2 Assay, Format 2 (Lantha Screen), WT; assay type: biochemical; settings: geometric mean of 2-4 determinations unless otherwise indicated (a: >=5; b: single determination)
[4] = target: T2, mutant G2019S LRRK2; test: LRRK2 Assay, Format 2 (Lantha Screen), G2019S mutant; assay type: biochemical; set-up: purchased Invitrogen PV4881; settings: geometric mean of 2-4 determinations unless otherwise indicated (a: >=5; b: single determination); read-out: LRRK2, Format 2 G2019S IC50
[5] = 100 nM LRRKtide, 50 μM ATP, 1.7 μg/mL LRRK2 enzyme, two hours at room temperature
[6] = Format 1, wild-type LRRK2, geometric mean of 2-4 determinations unless footnoted (a: ≥5 determinations; b: single determination; c: determined on trifluoroacetate salt)

T1 sequence (Q5S007 970-2527 limits assumed): as the sequence (Q5S007 970-2527 G2019S limits assumed) above, with S1050G counted along it

pIC50 [1, 5]	pIC50 [2]	pIC50 [1, 6]	pIC50 [3]	pIC50 [4]	Structure (SMILES)
6.48	6.63	–	–	–	C[C@H]1C[C@@H](n2c(Cc3ccon3)nc3cnc4ccc(F)cc4c32)CCO1 [enantiomer of Example 54, 8-fluoro-1-[(2S,4S)-2-methyltetrahydro-2H-pyran-4-yl]-2-(1,2-oxazol-3-ylmethyl)-1H-imidazo[4,5-c]quinoline]
6.07	6.20	–	–	–	C[C@H]1C[C@@H](n2c(Cc3ccon3)nc3cnc4cccnc4c32)CCO1 [enantiomer of Example 68, 1-[(2 S,4S)-2-methyltetrahydro-2H-pyran-4-yl]-2-(1,2-oxazol-3-ylmethyl)-1H-imidazo[4,5-c][1,5]naphthyridine]
6.57	6.87	–	–	–	C[C@@H]1C[C@@H](n2c(Cc3ccon3)nc3cnc4ccc(C#N)cc4c32)CCO1 [enantiomer of Example 24, 1-[(2R,4S)-2-methyltetrahydro-2H-pyran-4-yl]-2-(1,2-oxazol-3-ylmethyl)-1H-imidazo[4,5-c]quinoline-8-carbonitrile]
–	7.96	7.79	–	–	Cc1cnc(Cc2nc3cnc4ccc(Cl)cc4c3n2[C@@H]2CCO[C@H](C)C2)o1 [Example 92, 8-chloro-2-[(5-methyl-1,3-oxazol-2-yl)methyl]-1-[(2R,4R)-2-methyltetrahydro-2H-pyran-4-yl]-1H-imidazo[4,5-c]quinoline]
6.42	6.71	–	–	–	C[C@H]1C[C@@H](n2c(Cc3cscn3)nc3cnc4ccc(C#N)cc4c32)CCO1 [enantiomer of Example 57, 1-[(2S,4S)-2-methyltetrahydro-2H-pyran-4-yl]-2-(1,3-thiazol-4-ylmethyl)-1H-imidazo[4,5-c]quinoline-8-carbonitrile]
–	8.19	7.83	–	–	COc1ccc2ncc3nc(Cc4cn5ncsc5n4)n([C@@H]4CCO[C@H](C)C4)c3c2c1 [Example 90, 2-(imidazo[2,1-b][1,3,4]thiadiazol-6-ylmethyl)-8-methoxy-1-[(2R,4R)-2-methyltetrahydro-2H-pyran-4-yl]-1H-imidazo[4,5-c]quinoline]
–	–	–	7.19	6.97	N#CCc1nc2cnc3ccc(F)cc3c2n1[C@@H]1CC[C@H](F)C1 (single isomer, unassigned; ent-1) [Example 170, {8-fluoro-1-(cis-3-fluorocyclopentyl)-1H-imidazo[4,5-c]quinolin-2-yl}acetonitrile, ENT-1]
–	–	–	8.22	8.27	C[C@@H]1C[C@H](n2c(Cc3nc4ccccc4o3)nc3cnc4ccc(C#N)cc4c32)CCO1 [Example 153, 2-(1,3-benzoxazol-2-ylmethyl)-1-[(2R,4R)-2-methyltetrahydro-2H-pyran-4-yl]-1H-imidazo[4,5-c]quinoline-8-carbonitrile, formate salt]
–	–	–	8.15	8.12	COc1cnn(Cc2nc3cnc4ccc(C#N)cc4c3n2CC(C)(F)F)c1 [Example 210, 1-(2,2-difluoropropyl)-2-[(4-methoxy-1H-pyrazol-1-yl)methyl]-1H-imidazo[4,5-c]quinoline-8-carbonitrile]

Second part, the compound before the results:

Structure (SMILES)	pIC50 [1, 5]	pIC50 [2]	pIC50 [1, 6]	pIC50 [3]	pIC50 [4]
CC1(C)CC(n2c(Cn3cc(C(F)(F)F)cn3)nc3cnc4ccc(F)cc4c32)CCO1 (stereo not drawn) [Example 81, 1-(2,2-dimethyltetrahydro-2H-pyran-4-yl)-8-fluoro-2-{[4-(trifluoromethyl)-1H-pyrazol-1-yl]methyl}-1H-imidazo[4,5-c]quinoline, trifluoroacetate salt]	–	6.92	6.80	–	–
F[C@H]1CC[C@@H](n2c(Cn3cncn3)nc3cnc4ccccc4c32)C1 [Example 26, 1-[(1R,3S)-3-fluorocyclopentyl]-2-(1H-1,2,4-triazol-1-ylmethyl)-1H-imidazo[4,5-c]quinoline]	–	6.81	6.79	–	–
c1ccc2oc(Cc3nc4cnc5ccccc5c4n3C3CCOCC3)nc2c1 [Example 34, 2-(1,3-benzoxazol-2-ylmethyl)-1-(tetrahydro-2H-pyran-4-yl)-1H-imidazo[4,5-c]quinoline]	–	6.86	6.95	–	–
Clc1cn2cc(Cc3nc4cnc5ccccc5c4n3C3CCOCC3)nc2s1 [Example 71, 2-[(2-chloroimidazo[2,1-b][1,3]thiazol-6-yl)methyl]-1-(tetrahydro-2H-pyran-4-yl)-1H-imidazo[4,5-c]quinoline, trifluoroacetate salt]	–	6.92	6.97	–	–
C[C@@H]1C[C@H](n2c(Cc3cn4ncsc4n3)nc3cnc4ccc(Cl)cc4c32)CCO1 [Example 8, 8-Chloro-2-(imidazo[2,1-b][1,3,4]thiadiazol-6-ylmethyl)-1-[(2R,4R)-2-methyltetrahydro-2H-pyran-4-yl]-1H-imidazo[4,5-c]quinoline]	–	8.51	8.36	–	–
C[C@@H]1C[C@H](n2c(Cc3cscn3)nc3c(N)nc4ccc(Cl)cc4c32)CCO1 [Example 85, 8-chloro-1-[(2R,4R)-2-methyltetrahydro-2H-pyran-4-yl]-2-(1,3-thiazol-4-ylmethyl)-1H-imidazo[4,5-c]quinolin-4-amine, trifluoroacetate salt]	–	8.00	7.91	–	–
C[C@@H]1C[C@@H](n2c(Cc3ccon3)nc3cnc4ccc(C#N)cc4c32)CCO1 (racemic) [Example 23, 1-(trans-2-methyltetrahydro-2H-pyran-4-yl)-2-(1,2-oxazol-3-ylmethyl)-1H-imidazo[4,5-c]quinoline-8-carbonitrile]	–	6.82	6.70	–	–
COc1ccc(Cc2nc3cnc4ccccc4c3n2C2CCOCC2)nc1 [Example 37, 2-[(5-methoxypyridin-2-yl)methyl]-1-(tetrahydro-2H-pyran-4-yl)-1H-imidazo[4,5-c]quinoline]	–	6.84	6.88	–	–
Cc1cn(Cc2nc3cnc4ccccc4c3n2[C@@H]2CC[C@H](F)C2)nn1 [Example 27, 1-[(1R,3S)-3-fluorocyclopentyl]-2-[(4-methyl-1H-1,2,3-triazol-1-yl)methyl]-1H-imidazo[4,5-c]quinoline, formate salt]	–	6.93	6.73	–	–
F[C@H]1CC[C@@H](n2c(Cc3nc4ccccc4o3)nc3cnc4ccccc4c32)C1 [Example 28, 2-(1,3-benzoxazol-2-ylmethyl)-1-[(1R,3S)-3-fluorocyclopentyl]-1H-imidazo[4,5-c]quinoline]	–	6.80	6.82	–	–
c1ccc2c(c1)ncc1nc(Cc3cscn3)n(C3CCOCC3)c12 [Example 36, 1-(tetrahydro-2H-pyran-4-yl)-2-(1,3-thiazol-4-ylmethyl)-1H-imidazo[4,5-c]quinoline, formate salt]	–	7.04	7.07	–	–
Cc1cc(Cc2nc3cnc4ccc(Br)cc4c3n2[C@H]2CCO[C@@H](C)C2)no1 (racemic) [Example 58, 8-bromo-2-[(5-methyl-1,2-oxazol-3-yl)methyl]-1-(cis-2-methyltetrahydro-2H-pyran-4-yl)-1H-imidazo[4,5-c]quinoline]	–	8.09	7.77	–	–
COCc1cn(Cc2nc3cnc4ccccc4c3n2C2CCOCC2)nn1 [Example 33, 2-{[4-(methoxymethyl)-1H-1,2,3-triazol-1-yl]methyl}-1-(tetrahydro-2H-pyran-4-yl)-1H-imidazo[4,5-c]quinoline]	–	6.76	6.91	–	–
Fc1ccc2ncc3nc(Cn4cc(C(F)(F)F)cn4)n(C4CCOCC4)c3c2c1 [Example 78, 8-fluoro-1-(tetrahydro-2H-pyran-4-yl)-2-{[4-(trifluoromethyl)-1H-pyrazol-1-yl]methyl}-1H-imidazo[4,5-c]quinoline, trifluoroacetate salt]	–	6.94	6.84	–	–
c1ccc2c(c1)ncc1nc(Cn3cnnn3)n(C3CCOCC3)c12 [Example 35, 1-(tetrahydro-2H-pyran-4-yl)-2-(1H-tetrazol-1-ylmethyl)-1H-imidazo[4,5-c]quinoline]	–	6.68	6.82	–	–
Cc1nc2cnc3ccc(Cl)cc3c2n1C1CCOCC1 [Example 17, 8-chloro-2-methyl-1-(tetrahydro-2H-pyran-4-yl)-1H-imidazo[4,5-c]quinoline]	–	6.88	6.90	–	–
C[C@@H]1C[C@H](n2c(CC#N)nc3cnc4ccc(Cl)cc4c32)CCO1 [Example 9, {8-Chloro-1-[(2R,4R)-2-methyltetrahydro-2H-pyran-4-yl]-1H-imidazo[4,5-c]quinolin-2-yl}acetonitrile]	–	8.19	8.20	–	–
Cc1nc2cnc3ccccc3c2n1[C@H]1CCO[C@@H](C)C1 (racemic) [Example 15, 2-methyl-1-(cis-2-methyltetrahydro-2H-pyran-4-yl)-1H-imidazo[4,5-c]quinoline]	–	6.59	6.73	–	–

From patent publication US10039753B2, “Imidazo[4,5-c]quinoline and imidazo[4,5-c][1,5]naphthyridine derivatives as LRRK2 inhibitors” (Pfizer Inc., priority 2015, dated 2018)
